Experiments:
Format in all cases: cell-based
[1] = test system: Bovine Cardio-Pulmonary Artery Endothelial (CPAE) cells; assay: endothelial cell proliferation assay (cellular acid phosphatase readout)
Protocol: An endothelial cell proliferation assay was carried out according to the procedures of Connally, et al. (1986) (Anal. Biochem. 152:136-140) with modifications (Liang and Wong (2000) ANGIOGENESIS: FROM THE MOLECULAR TO INTEGRATIVE PHARMACOLOGY, edited by Maradoudakis, Kluwer Academic/Plenum Publishers, New York, pp 209-223). Bovine Cardio-Pulmonary Artery Endothelial (CPAE) cells acquired from American Type Culture Collection (ATCC; ATCC No. CCL-209) were grown to nearly 95% confluence in MEM-10E. The cells were released from the tissue culture flask with a 0.25% trypsin solution and plated in 24-well tissue culture plates in the same culture medium at a density of 10,000 cells/well. After the plates were incubated for 8 hours at 37° C. in a 5% carbon dioxide incubator, assay samples and control samples were added. Each sample was loaded in two different wells at 100 μl/well to ensure reproducibility. After incubation with the sample for 60 hours, the medium was aspirated, and the number of cells was measured on the basis of the calorimetric measurement of cellular acid phosphatase.

[2] = test system: SW480 (Colon Cancer) cancer cell line; assay: inhibition of cancer cell lines in vitro: SW480; conditions: about 2 micrograms per milliliter
Source text: (§1) 15,16-dihyrotanshinone I is also a potent inhibitor of several cancer cell lines in vitro, including the SW480 (Colon Cancer) and the HTB 72 (Melanoma) cancer cell lines. At a very low concentration of about 2 micrograms per milliliter, 100% inhibitions are achieved.

[3] = test system: HTB 72 (Melanoma) cancer cell line; assay: inhibition of cancer cell lines in vitro: HTB 72; conditions: about 2 micrograms per milliliter
Source text: as §1

## Cc1cccc2c3c(ccc12)C1=C(C(=O)C3=O)C(C)CO1 (stereo not shown) [15,16-dihydrotanshinone I, 15,16-dihydrotanshinone]
[1]; Bos taurus, Endothelial cell, 50 μg/ml, 60 hours incubation, read-out: endothelial cell growth inhibition
  inhibition at 50 µg/mL: 84.4%
[1]; another 15,16-dihydrotanshinone I sample, result in words
  inhibition of endothelial cell proliferation, concentration-dependent study (FIG. 1): inhibits endothelial cell proliferation in a concentration-dependent manner
[2]
  inhibition of SW480 (Colon Cancer) cell line: 100%
[3]
  inhibition of HTB 72 (Melanoma) cell line: 100%

— US20090093539A1, “ANTI-ANGIOGENIC COMPOSITIONS AND METHODS OF USE THEREOF” (priority 2007, published 2009)
